From the NIST ThermoML archive (doi:10.1021/je060271a)

Conditions: 323.15 K, Liquid, Vibrating tube method

CCCCCCC(=O)OCC(COC(=O)CCCCCC)(COC(=O)CCCCCC)COC(=O)CCCCCC [pentaerythritol tetraheptanoate]
Conditions | mass density [kg/m3]
102 kPa | 955.7
102.5 kPa | 955.6
102.8 kPa | 955.6
103.5 kPa | 955.7
104.8 kPa | 955.6
106.8 kPa | 955.7
109.1 kPa | 955.7
113.5 kPa | 955.6
119 kPa | 955.5
127.2 kPa | 955.7
130.7 kPa | 955.6
133.3 kPa | 955.7
136.2 kPa | 955.6
136.9 kPa | 955.6
138 kPa | 955.7
138.5 kPa | 955.6
139.2 kPa | 955.7
139.5 kPa | 955.6
140.6 kPa | 955.6
144.4 kPa | 955.7
144.9 kPa | 955.7
145.8 kPa | 955.6
147.5 kPa | 955.7
152.7 kPa | 955.6
153.6 kPa | 955.7
154.3 kPa | 955.6
155.5 kPa | 955.8
156.6 kPa | 955.8
157.4 kPa | 955.7
158.7 kPa | 955.7
159.7 kPa | 955.7
161.8 kPa | 955.7
163.2 kPa | 955.6
164.2 kPa | 955.7
165.3 kPa | 955.8
166.8 kPa | 955.6
168 kPa | 955.8
169.3 kPa | 955.7
170.8 kPa | 955.7
172 kPa | 955.6
173.3 kPa | 955.7
175 kPa | 955.8
176.4 kPa | 955.7
177.9 kPa | 955.7
179.7 kPa | 955.6
181.2 kPa | 955.7
182.8 kPa | 955.8
184.6 kPa | 955.9
186.5 kPa | 955.7
188 kPa | 955.7
190.1 kPa | 955.7
193.9 kPa | 955.7
196.2 kPa | 955.6
241.4 kPa | 955.7
245.4 kPa | 955.7
265.6 kPa | 955.7
319.3 kPa | 955.8
340.6 kPa | 955.9
347.8 kPa | 955.9
364.8 kPa | 955.8
373.5 kPa | 955.8
449.4 kPa | 955.8
461.8 kPa | 955.9
492.2 kPa | 955.9
510.3 kPa | 955.9
526.4 kPa | 955.8
543.6 kPa | 956
565.9 kPa | 955.9
711.1 kPa | 955.8
779.6 kPa | 956.2
814.3 kPa | 956.1
1089.1 kPa | 956.3
1094 kPa | 956.3
1098.2 kPa | 956.3
1102.3 kPa | 956.3
1107 kPa | 956.4
1111.5 kPa | 956.4
1115.9 kPa | 956.4
1120.4 kPa | 956.4
1125.8 kPa | 956.5
1130.3 kPa | 956.4
1134.8 kPa | 956.4
1139 kPa | 956.5
1144.5 kPa | 956.3
1149 kPa | 956.4
1153.9 kPa | 956.4
1159.3 kPa | 956.3
1168.5 kPa | 956.5
1178.6 kPa | 956.4
1183.8 kPa | 956.5
1189 kPa | 956.4
1195.1 kPa | 956.5
1199.8 kPa | 956.4
1204.6 kPa | 956.4
1209.5 kPa | 956.5
1220.6 kPa | 956.5
1225.4 kPa | 956.4
1231.5 kPa | 956.5
1236.9 kPa | 956.4
1242.6 kPa | 956.5
1253.4 kPa | 956.3
1258.4 kPa | 956.6
1263.5 kPa | 956.3
1275.6 kPa | 956.5
1281.2 kPa | 956.4
1286.7 kPa | 956.4
1293.2 kPa | 956.5
1298.9 kPa | 956.4
1304.6 kPa | 956.7
1311.6 kPa | 956.5
1317.3 kPa | 956.6
1323 kPa | 956.5
1328.9 kPa | 956.5
1421.1 kPa | 956.7
1427.4 kPa | 956.6
1434.2 kPa | 956.7
1442 kPa | 956.6
1448.9 kPa | 956.6
1457.1 kPa | 956.6
1463.5 kPa | 956.7
1470.3 kPa | 956.7
1477.4 kPa | 956.6
1485.6 kPa | 956.6
1492.5 kPa | 956.6
1499.8 kPa | 956.7
1507.4 kPa | 956.7
1523.2 kPa | 956.6
1619.7 kPa | 956.8
1629.6 kPa | 956.7
1719.4 kPa | 956.9
1728.2 kPa | 956.8
1736.9 kPa | 956.8
1745.9 kPa | 956.8
1775.6 kPa | 956.9
2116.8 kPa | 957.1
2152.2 kPa | 957.1
2381.2 kPa | 957.2
2470.4 kPa | 957.3
2492.4 kPa | 957.2
2508.4 kPa | 957.3
2527.1 kPa | 957.3
2559.7 kPa | 957.3
3115.5 kPa | 957.7
3137.8 kPa | 957.7
3159 kPa | 957.8
3207.3 kPa | 957.8
3229.7 kPa | 957.7
3644.1 kPa | 958
3670.9 kPa | 958.1
3703.5 kPa | 958.2
3731.4 kPa | 958.2
3759.3 kPa | 958.1
3792.9 kPa | 958.3
3822.5 kPa | 958.2
3850.4 kPa | 958.2
3884.5 kPa | 958.2
3913.6 kPa | 958.2
3943.3 kPa | 958.4
4059.8 kPa | 958.5
4061.6 kPa | 958.4
4063.3 kPa | 958.4
8709 kPa | 961.5
8730.4 kPa | 961.5
8752.3 kPa | 961.6
8778.6 kPa | 961.5
8802.6 kPa | 961.5
8824.6 kPa | 961.6
8846.3 kPa | 961.7
8868.4 kPa | 961.6
8895.1 kPa | 961.7
8917.5 kPa | 961.5
8944.2 kPa | 961.7
8967 kPa | 961.7
8990.1 kPa | 961.6
9017.1 kPa | 961.7
9040.1 kPa | 961.7
9063.7 kPa | 961.7
9091.6 kPa | 961.8
9116.3 kPa | 961.8
9139.9 kPa | 961.8
9164 kPa | 961.8
9192.5 kPa | 961.9
9216.2 kPa | 961.8
9269.5 kPa | 962
9293.8 kPa | 961.9
9318.4 kPa | 962
9348.8 kPa | 961.9
9373.9 kPa | 961.9
9399.6 kPa | 962
9431.8 kPa | 962.1
9459.4 kPa | 962.1
9492.7 kPa | 962.1
9518.2 kPa | 962
9535.7 kPa | 962
9548.7 kPa | 962.2
9563.6 kPa | 962.2
9576.4 kPa | 962.1
9591.9 kPa | 962.1
9617.9 kPa | 962
9633.3 kPa | 961.9
9646.7 kPa | 962.2
9660.3 kPa | 962.1
9673.6 kPa | 962.1
9689.4 kPa | 962.3
9702.7 kPa | 962.2
9716.1 kPa | 962.2
9732.2 kPa | 962.1
9788.5 kPa | 962.2
9802.3 kPa | 962.3
9818.5 kPa | 962.2
9832.1 kPa | 962.3
9845.9 kPa | 962.3
9862.6 kPa | 962.3
9876.5 kPa | 962.3
9890.5 kPa | 962.4
9906.8 kPa | 962.3
9920.8 kPa | 962.3
9951.3 kPa | 962.3
10010 kPa | 962.4
10071 kPa | 962.3
10088 kPa | 962.5
10103 kPa | 962.5
10117 kPa | 962.4
